Assay results published in patent US5434295A (priority 1994, dated 1995).

Key:
NMDA toxicity in mice = assay: Prevention of NMDA neurotoxicity in mice (neurological scores); assay type: in vivo, mice (Balb/C); settings: for maximum improvement of neurological scores: NMDA 60 mg/kg s.c., i.p. or i.v. pretreatment; for neurological scores/symptoms after NMDA toxicity: pretreated mice
From the text: Blockade of NMDA toxicity in mice: Subcutaneous injection of NMDA in mice results in a dose-dependent increase in the number, severity and duration of several neurological symptoms, culminating in death at the higher dose range. The symptoms include tail flicks, circling, tremor and convulsions. The ability of various compounds, when administered to mice prior to NMDA, to reduce the number and severity of these symptoms is a considered a measure of their potency in preventing NMDA behavioral toxicity in vivo.
Test drugs were administered intraperitoneally at the stipulated doses in a solution of MCT oil. Each point represents the mean scores of eight mice treated with the drug compared to the same number of control animals receiving the vehicle alone.
Test compounds were administered at a standard dose of 10 mg/kg either intraperitoneally (in MCT oil) or intravenously (in a submicronized emulsion).
Bicyclic compounds of the present invention were tested for their ability to block NMDA toxicity in mice. Balb/C mice received NMDA by subcutaneous injection at a dose of 60 mg/kg which was determined to be the LD20 dose of this substance. Thirty minutes prior to injection of the neurotoxin the animals received either (a) an intravenous injection of the test drug formulated in submicronized emulsion as described in Example 11); (b) an intraperitoneal injection of the test drug dissolved in MCT oil; (c) or the appropriate vehicle alone (control groups). The improvement rate afforded by the test drug was defined as the difference between scores of animals receiving the formulated drug and those receiving the vehicle alone. The doses tested for HU-254, HU-259 and HU-260 ranged from 5 to 30 mg/kg.
At least 6-8 mice were included per test group. The materials were tested in a masked study to preclude bias of the observer of clinical symptoms.
The behavioral scoring method (tabulated above) was used as the basic quantitative procedure for evaluating the level of NMDA or kainic acid neurotoxicity in mice. The neurological clinical status of each animal was calculated by totalling the scores of all signs that were evident throughout the study. Duration of symptoms was also taken into account.
If duration of a neurological system is up to 30 seconds, the score is s-1. Duration between 0.5-3.0 mins, the score is s. Duration longer than 3 mins, the score is s+1.

[1] = tested on: pyramidal cells in CA1 subfield of the hippocampus; assay: Histopathological evaluation of hippocampus in gerbils after bilateral common carotid artery occlusion; assay type: in vivo, Mongolian gerbils; settings: drug 30 min after occlusion
From the text: Inhibition of ischemic neuronal damage in gerbils: Temporary blockage of the blood supply to the gerbil brain by surgical ligation of the two major arteries (common carotids) results in transient global forebrain ischemia. Temporary global ischemia produces a delayed, selective degeneration of neurons in the hippocampus, a brain structure essential for memory formation. The ability of various compounds to prevent hippocampal cell loss and the attendant memory deficits is considered a measure of their potency as neuroprotectants in ischemic conditions.
Mongolian gerbils (male), 65-70 gr (Tumblebrook Farm) underwent the ischemic procedure while anaesthetised with equithisine.
Common carotid arteries (CCA) were isolated and 3-0 silk suture material was positioned loosely round them. The tips of each loop were tied together, and the suture material was buried beside the trachea. The ventral neck incision was then sutured. In the following day, they were lightly anaesthetised with ether, the neck skin wounds were opened and both CCA were occluded for 10 minutes using small artery clips. During the ischemia and until the animals recovered (regaining righting reflexes), they were maintained in a warm state (36.5°-37.5° C. rectal temperature). […]
Histopathological evaluation. […] Then, 5 μm sections were cut from the area of the dorsal hippocampus, stained with H&E and cresyl violet, and evaluated according to the following system. The number of viable pyramidal cells in the medial, middle and lateral CA1 subfield of the hippocampus were counted under 400X magnification, along 0.4 mm in both sides. […]
Statistics. Neuroclinical appearance was analyzed using Wilcoxon Rank Sum Test. The histopathological evaluation was analyzed using One-Way ANOVA followed by Duncan's Test.
Gerbils were scored for their clinical symptoms following the ischemic insult according to the system described by Rudolphi et al. (Table 4). Each animal was evaluated daily over 4 consecutive days (Day 1 being the day of CCA occlusion). […]

| Compound | maximum improvement of neurological scores (NMDA toxicity in mice) | neurological scores/symptoms after NMDA toxicity (NMDA toxicity in mice) | histopathological damage / survival of hippocampal cells [1] |
| --- | --- | --- | --- |
| CCCCCCC(C)(C)c1cc(OC(C)=O)c([C@H]2C=C(C(=O)O)[C@H]3C[C@@H]2C3(C)C)c(OC(C)=O)c1 [(+)-4-[4-DMH-2,6 diacetoxyphenyl]-2-carboxy-6,6-dimethylbicyclo[3.1.1]hept-2-en] | 30-40% | improvement in neurological scores | significantly decreased compared to control groups |
| CCCCCCC(C)(C)c1cc(OC(C)=O)c([C@H]2C=C(C(=O)N(CC)CC)[C@H]3C[C@@H]2C3(C)C)c(OC(C)=O)c1 [HU-270] | 30-40% | decreased neurological symptoms | increased survival of hippocampal cells |
| CCCCCCC(C)(C)c1cc(OC(C)=O)c([C@H]2C=C(C(=O)NCCO)[C@H]3C[C@@H]2C3(C)C)c(OC(C)=O)c1 [HU-271] | 30-40% | decreased neurological symptoms | increased survival of hippocampal cells |
